The values below come from ChEMBL document CHEMBL1138170, “Novel lactam NK1 antagonists with anti-emetic activity” (Bioorg Med Chem Lett, 2006).

For test [1], the system named is Gerbil, jird. Kind of test: Inhibition of GR-73632-induced foot-tapping in iv dosed gerbils after 0 h. It is filed as functional. Particulars: Meriones, read-out: ID50 (the source's name).
A further test deals with Mustela putorius furo. Description: Inhibition of cis-platin induced emesis in ferrets at 1 mg/kg, iv. The class given is functional.
The target of test [2] is Voltage-gated inwardly rectifying potassium channel KCNH2 (Homo sapiens, UniProt Q12809). Description: Displacement of labelled MK-499 from cloned channel hERG expressed in HEK cells. The class given is cell-based, HEK293. On the technique in general: Block of hERG is tested as a sign of cardiac risk.
Chain of Voltage-gated inwardly rectifying potassium channel KCNH2 (Q12809 whole entry): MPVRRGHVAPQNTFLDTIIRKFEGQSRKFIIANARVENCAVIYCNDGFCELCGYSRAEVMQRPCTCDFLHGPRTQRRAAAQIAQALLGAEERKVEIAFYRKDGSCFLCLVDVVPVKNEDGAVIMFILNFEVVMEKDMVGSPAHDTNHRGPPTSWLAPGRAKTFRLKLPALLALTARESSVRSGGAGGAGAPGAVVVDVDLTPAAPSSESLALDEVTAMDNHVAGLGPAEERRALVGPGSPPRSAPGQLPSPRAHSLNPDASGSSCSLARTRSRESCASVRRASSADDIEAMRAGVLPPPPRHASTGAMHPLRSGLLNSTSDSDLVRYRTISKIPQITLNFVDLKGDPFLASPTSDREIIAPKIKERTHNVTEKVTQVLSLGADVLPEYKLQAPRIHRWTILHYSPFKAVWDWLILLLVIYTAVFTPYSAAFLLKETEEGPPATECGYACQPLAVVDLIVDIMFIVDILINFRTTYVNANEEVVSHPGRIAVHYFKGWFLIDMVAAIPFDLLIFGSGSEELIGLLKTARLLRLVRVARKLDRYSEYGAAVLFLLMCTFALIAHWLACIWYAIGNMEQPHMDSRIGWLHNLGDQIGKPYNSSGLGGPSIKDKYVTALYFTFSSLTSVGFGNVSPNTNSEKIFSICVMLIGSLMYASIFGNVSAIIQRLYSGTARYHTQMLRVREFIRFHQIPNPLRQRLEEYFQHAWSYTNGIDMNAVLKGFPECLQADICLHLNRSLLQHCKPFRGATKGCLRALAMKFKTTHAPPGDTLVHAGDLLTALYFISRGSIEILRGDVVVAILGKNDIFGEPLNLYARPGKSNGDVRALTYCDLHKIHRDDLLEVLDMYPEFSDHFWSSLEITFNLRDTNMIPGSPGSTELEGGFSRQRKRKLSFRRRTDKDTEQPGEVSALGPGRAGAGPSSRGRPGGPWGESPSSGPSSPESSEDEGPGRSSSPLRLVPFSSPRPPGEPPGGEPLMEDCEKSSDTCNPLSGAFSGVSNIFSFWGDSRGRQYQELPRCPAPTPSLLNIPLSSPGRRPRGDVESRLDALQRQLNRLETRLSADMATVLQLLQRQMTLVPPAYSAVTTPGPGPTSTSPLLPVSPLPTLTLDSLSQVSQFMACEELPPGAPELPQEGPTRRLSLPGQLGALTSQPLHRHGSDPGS
Test [3] relates to Gerbil, jird. Description: Inhibition of GR-73632-induced foot-tapping in gerbils after 24 h at 3 mg/kg, iv. The class given is functional. To be noted: Meriones.
For the next test, the target named is Substance-P receptor (Homo sapiens, UniProt P25103). Kind of test: Displacement of [125I]-labeled substance P from the cloned human NK1 receptor expressed in CHO cells. It is filed as cell-based. On the technique in general: In a radioligand displacement assay an active substance lowers the binding of a labelled ligand.
Chain of Substance-P receptor (P25103 whole entry): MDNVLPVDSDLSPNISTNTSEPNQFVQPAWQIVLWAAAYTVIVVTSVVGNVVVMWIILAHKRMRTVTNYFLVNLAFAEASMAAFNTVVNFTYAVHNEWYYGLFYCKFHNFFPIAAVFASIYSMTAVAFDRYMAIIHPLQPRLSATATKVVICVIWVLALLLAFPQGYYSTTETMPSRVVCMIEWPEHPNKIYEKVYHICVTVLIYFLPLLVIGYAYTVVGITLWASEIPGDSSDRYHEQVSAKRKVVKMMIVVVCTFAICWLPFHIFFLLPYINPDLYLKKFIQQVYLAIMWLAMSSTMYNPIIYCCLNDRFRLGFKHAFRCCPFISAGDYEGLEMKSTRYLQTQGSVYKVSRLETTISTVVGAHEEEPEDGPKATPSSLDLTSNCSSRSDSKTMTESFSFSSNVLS
Test [4] concerns Gerbil, jird. Description: Inhibition of GR-73632-induced foot-tapping in iv dosed gerbils after 24 h. To be noted: Meriones, read-out: ID50 (the source's name).
Test [5] deals with Gerbil, jird. Kind of test: Inhibition of GR-73632-induced foot-tapping in iv dosed gerbils after 24 h. The class given is functional. Particulars: Meriones, read-out: ID50 (the source's name).
In test [6] the test system is Gerbil, jird. Description: Inhibition of GR-73632-induced foot-tapping in iv dosed gerbils after 2 h. It is filed as functional. Particulars: Meriones, read-out: ID50 (the source's name).
In test [7] the test system is Gerbil, jird. Kind of test: Inhibition of GR-73632-induced foot-tapping in po dosed gerbils after 24 h. To be noted: Meriones, read-out: ID50 (the source's name). The class given is functional.

As usually defined, the inhibition in vivo is the change of the read-out against control, counted positive when it falls. For orientation: Ki means a dissociation constant, usually derived from enzyme kinetics or from competition with a known ligand. A low value points to tighter binding. One may read the IC50 as the midpoint of a concentration-inhibition curve. A lower IC50 goes with greater potency in that assay.

Regarding `O=C1C(c2cc(C(F)(F)F)cc(C(F)(F)F)c2)CCN1[C@]1(c2ccccc2)CC[C@@H](N2CCC3(CCOC3)CC2)CC1` (some centres undefined), in the test with Gerbil, jird [1], the ED50 stood at 0.35 mg/kg. The inhibition in vivo at 1 mg/kg with Mustela putorius furo was 50%. Further, in [2], the inhibitory constant (Ki) amounted to 327 nM. For the same compound, the inhibition in vivo at 3 mg/kg with Gerbil, jird [3] turned out to be 62%. Also, the IC50 on Substance-P receptor was determined as 0.5 nM.
`O=C1N([C@]2(c3ccccc3)CC[C@@H](N3CCC4(CCOC4)CC3)CC2)CCC1(O)c1cc(C(F)(F)F)cc(C(F)(F)F)c1` (some centres undefined) registered an inhibitory constant (Ki) in [2] of 862 nM. This compound yielded an inhibition in vivo at 3 mg/kg in the test with Gerbil, jird [3] of 5%. In addition, the 50% inhibitory concentration (IC50) at Substance-P receptor came to 0.66 nM.
`CN(C)[C@H]1CC[C@](c2ccccc2)(N2CCC(c3cc(C(F)(F)F)cc(C(F)(F)F)c3)C2=O)CC1` (some centres undefined) showed a Ki in [2] of 984 nM. The compound also registered an IC50 at Substance-P receptor of 6.2 nM.
Turning to `O=C1CN([C@H]2CC[C@](c3ccccc3)(N3CCC(c4cc(C(F)(F)F)cc(C(F)(F)F)c4)C3=O)CC2)CCN1c1ccccc1` (some centres undefined), the ED50 amounted to 2.1 mg/kg in the test on Gerbil, jird [4] and 0.09 mg/kg in the test with Gerbil, jird [1]. In [2], this compound had an inhibition constant Ki of 2000 nM. At Substance-P receptor, this compound registered an IC50 of 1.1 nM.
For `CC1(c2cc(C(F)(F)F)cc(C(F)(F)F)c2)CCN([C@]2(c3ccccc3)CC[C@@H](N3CCC4(CCOC4)CC3)CC2)C1=O` (some centres undefined), in the test with Gerbil, jird [5], the ED50 came out at 0.24 mg/kg. Further, the inhibition constant Ki in test [2] is 364 nM. On Substance-P receptor, this compound yielded an IC50 of 0.33 nM.
In the case of `CC(C(=O)N[C@]1(c2ccccc2)CC[C@@H](N2CCN(c3ccccc3)C(=O)C2)CC1)c1cc(C(F)(F)F)cc(C(F)(F)F)c1` (some centres undefined), the ED50 in the test with Gerbil, jird [5] came to 1.2 mg/kg; in the test with Gerbil, jird [1] it was 0.13 mg/kg. Besides, the affinity in test [2], expressed as Ki, was 3710 nM. On Substance-P receptor, the IC50 was 0.62 nM.
Regarding `O=C1CN([C@H]2CC[C@](c3ccccc3)(N3CCCC(c4cc(C(F)(F)F)cc(C(F)(F)F)c4)C3=O)CC2)CCN1c1ccccc1` (some centres undefined), the Ki in [2] worked out at 6530 nM. This compound gave a half-inhibitory concentration (IC50) at Substance-P receptor of 1.5 nM.
`O=C1C(c2cc(C(F)(F)F)cc(C(F)(F)F)c2)CCCN1[C@]1(c2ccccc2)CC[C@@H](N2CCC3(CCOC3)CC2)CC1` (some centres undefined) registered a Ki in test [2] of 798 nM. In the test on Gerbil, jird [3], this compound returned an inhibition in vivo at 3 mg/kg of 34%. This compound returned an IC50 on Substance-P receptor of 0.8 nM.
`CC(C(=O)N[C@]1(c2ccccc2)CC[C@@H](N2CCC3(CCOC3)CC2)CC1)c1cc(C(F)(F)F)cc(C(F)(F)F)c1` (some centres undefined): the ED50 with Gerbil, jird [5] was found to be 1.62 mg/kg; in the test with Gerbil, jird [1], 1.44 mg/kg; in the test with Gerbil, jird [6] it was 1.1 mg/kg; in the test with Gerbil, jird [7], 2.2 mg/kg. For the same compound, at Substance-P receptor, the IC50 was 0.34 nM.
Take `CC1(c2cc(C(F)(F)F)cc(C(F)(F)F)c2)CCN([C@]2(c3ccccc3)CC[C@@H](N3CCN(c4ccccc4Cl)C(=O)C3)CC2)C1=O` (some centres undefined): the inhibition in vivo at 3 mg/kg in the test with Gerbil, jird [3] is 57%. On Substance-P receptor, this compound came in with an IC50 of 0.48 nM.
In the test on Gerbil, jird [3], `COC1(c2cc(C(F)(F)F)cc(C(F)(F)F)c2)CCN([C@]2(c3ccccc3)CC[C@@H](N3CCC4(CCOC4)CC3)CC2)C1=O` (some centres undefined) had an inhibition in vivo at 3 mg/kg of 29%. Moreover, on Substance-P receptor, the 50% inhibitory concentration (IC50) worked out at 0.48 nM.
Regarding `CC1(c2cc(C(F)(F)F)cc(C(F)(F)F)c2)CCN([C@]2(c3ccccc3)CC[C@@H](N3CCN(c4ccccc4)C(=O)C3)CC2)C1=O` (some centres undefined), the ED50 came to 0.6 mg/kg in the test on Gerbil, jird [5] and 0.22 mg/kg in the test on Gerbil, jird [1]. For the same compound, in the test on Mustela putorius furo, the inhibition in vivo at 1 mg/kg came out at 90%. Further, the half-inhibitory concentration (IC50) at Substance-P receptor is 0.48 nM.
